{
  "source": "ChEMBL document CHEMBL5321293",
  "about": "“Discovery of ERD-3111 as a Potent and Orally Efficacious Estrogen Receptor PROTAC Degrader with Strong Antitumor Activity” (J Med Chem, 2023)",
  "key": {"[1]": {"target": "Voltage-gated inwardly rectifying potassium channel KCNH2 (Homo sapiens, UniProt Q12809)", "sequence (Q12809 whole entry)": "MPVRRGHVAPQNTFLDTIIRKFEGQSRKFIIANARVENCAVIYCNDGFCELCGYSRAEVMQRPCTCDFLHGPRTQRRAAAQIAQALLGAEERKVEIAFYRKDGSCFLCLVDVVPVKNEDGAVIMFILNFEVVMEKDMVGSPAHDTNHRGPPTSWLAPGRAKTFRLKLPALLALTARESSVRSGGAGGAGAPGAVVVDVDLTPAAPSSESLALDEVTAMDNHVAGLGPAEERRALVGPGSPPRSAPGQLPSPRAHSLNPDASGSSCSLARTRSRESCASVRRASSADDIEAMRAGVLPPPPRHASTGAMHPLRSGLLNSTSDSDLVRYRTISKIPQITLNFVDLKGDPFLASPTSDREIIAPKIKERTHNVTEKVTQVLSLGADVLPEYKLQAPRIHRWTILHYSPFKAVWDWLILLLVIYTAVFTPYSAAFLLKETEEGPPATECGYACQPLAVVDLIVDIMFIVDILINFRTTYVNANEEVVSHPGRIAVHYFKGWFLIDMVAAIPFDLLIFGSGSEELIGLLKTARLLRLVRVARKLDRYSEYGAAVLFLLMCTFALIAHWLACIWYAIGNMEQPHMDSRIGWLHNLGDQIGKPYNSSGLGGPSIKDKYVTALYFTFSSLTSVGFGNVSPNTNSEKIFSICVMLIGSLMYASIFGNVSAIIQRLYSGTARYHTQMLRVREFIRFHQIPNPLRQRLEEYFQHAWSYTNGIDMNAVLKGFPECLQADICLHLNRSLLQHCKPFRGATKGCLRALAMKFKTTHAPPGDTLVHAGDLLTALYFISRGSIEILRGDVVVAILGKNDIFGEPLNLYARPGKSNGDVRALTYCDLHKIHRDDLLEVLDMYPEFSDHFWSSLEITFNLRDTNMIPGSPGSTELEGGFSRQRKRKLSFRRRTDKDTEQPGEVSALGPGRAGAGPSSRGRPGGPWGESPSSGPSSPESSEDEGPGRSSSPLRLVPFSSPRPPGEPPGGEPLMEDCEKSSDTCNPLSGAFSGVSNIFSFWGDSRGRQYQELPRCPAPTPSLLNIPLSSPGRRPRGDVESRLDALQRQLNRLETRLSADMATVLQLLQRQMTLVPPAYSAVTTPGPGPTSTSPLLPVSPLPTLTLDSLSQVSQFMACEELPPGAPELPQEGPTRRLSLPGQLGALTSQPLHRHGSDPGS", "assay": "Inhibition of human ERG in human HEK293 cells incubated for 5 mins by patch clamp assay", "assay_type": "toxicity, cell-based"}, "MCF7 [2]": {"test_system": "MCF7", "assay": "Antitumor activity against human MCF7 cells harboring ESR1 Y537S mutant xenografted in CB17 SCID mouse assessed as tumor growth inhibition at 10 mg/kg, po qd for 4 weeks", "assay_type": "functional", "conditions": "MCF7, 672 h, read-out: TGI"}, "[3]": {"assay": "Drug concentration in tumor of CB17 SCID mouse xenografted with human MCF7 cells harboring ESR1 Y537S mutant at 30 mg/kg, po qd for 3 days and measured after 6 hrs last dose by LC-MS/MS analysis", "assay_type": "ADME, organism-based, Neoplasm", "conditions": "time 3 day, read-out: Ct"}, "[4]": {"assay": "Toxicity in CB17 SCID mouse xenografted with human MCF7 cells harboring ESR1 D538G mutant assessed as body weight change at 30 mg/kg,po qd for 4 weeks", "assay_type": "organism-based", "conditions": "in vivo, 672 h"}, "[5]": {"assay": "AUC in Beagle dog at 1 mg/kg, po and measured upto 24 hrs by LC-MS/MS analysis", "assay_type": "ADME, organism-based, Canis lupus familiaris", "parameters": "dose 1 mg/kg, time < 24 hrs, route po", "conditions": "in vivo"}, "[6]": {"assay": "Downregulation of ERalpha protein expression in tumor of CB17 SCID mouse xenografted with human MCF7 cells harboring ESR1 Y537S mutant at 30 mg/kg, po qd for 3 days and measured after 6 hrs last dose by Western blot analysis relative to control", "assay_type": "functional", "conditions": "time 3 day"}, "[7]": {"assay": "Toxicity in CB17 SCID mouse xenografted with human MCF7 cells harboring wild type ESR1 assessed as body weight change at 10 mg/kg,po qd for 5 weeks", "assay_type": "organism-based", "conditions": "in vivo, 840 h"}, "[8]": {"assay": "Toxicity in CB17 SCID mouse xenografted with human MCF7 cells harboring ESR1 Y537S mutant assessed as body weight change at 30 mg/kg,po qd for 4 weeks", "assay_type": "organism-based", "conditions": "in vivo, 672 h"}, "[9]": {"assay": "Downregulation of ERalpha protein expression in tumor of CB17 SCID mouse xenografted with human MCF7 cells harboring wild type ESR1 at 30 mg/kg, po qd for 3 days and measured after 24 hrs last dose by Western blot analysis relative to control", "assay_type": "functional", "conditions": "time 3 day"}, "[10]": {"assay": "Metabolic stability in rat liver microsomes assessed as half life at 1 uM and measured upto 60 mins in presence of NADPH by LC-MS/MS analysis", "assay_type": "ADME, Microsome"}, "[11]": {"assay": "Downregulation of ERalpha protein expression in tumor of CB17 SCID mouse xenografted with human MCF7 cells harboring wild type ESR1 at 10 mg/kg, po qd for 3 days and measured after 6 hrs last dose by Western blot analysis relative to control", "assay_type": "functional", "conditions": "time 3 day"}, "[12]": {"assay": "Volume of distribution at steady state in Sprague-Dawley rat at 1 mg/kg, iv and measured upto 24 hrs by LC-MS/MS analysis", "conditions": "in vivo"}, "[13]": {"assay": "Clearance in ICR mouse at 1 mg/kg, iv and measured upto 24 hrs by LC-MS/MS analysis", "assay_type": "ADME, organism-based", "conditions": "in vivo"}, "Cytochrome P450 3A4": {"target": "Cytochrome P450 3A4 (Homo sapiens, UniProt P08684)", "sequence (P08684 whole entry)": "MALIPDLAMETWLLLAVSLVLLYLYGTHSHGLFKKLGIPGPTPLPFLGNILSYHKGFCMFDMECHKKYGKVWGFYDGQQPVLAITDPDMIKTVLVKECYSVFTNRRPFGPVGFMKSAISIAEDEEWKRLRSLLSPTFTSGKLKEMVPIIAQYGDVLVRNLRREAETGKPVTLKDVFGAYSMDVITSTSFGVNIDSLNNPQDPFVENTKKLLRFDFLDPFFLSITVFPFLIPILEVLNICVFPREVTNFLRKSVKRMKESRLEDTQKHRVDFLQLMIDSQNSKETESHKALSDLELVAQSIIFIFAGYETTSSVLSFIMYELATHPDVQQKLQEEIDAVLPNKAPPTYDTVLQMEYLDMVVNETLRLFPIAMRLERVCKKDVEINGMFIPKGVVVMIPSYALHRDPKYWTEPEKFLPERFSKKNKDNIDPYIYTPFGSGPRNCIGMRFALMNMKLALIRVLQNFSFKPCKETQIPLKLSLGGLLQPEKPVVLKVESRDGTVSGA", "assay": "Inhibition of CYP3A4 in human liver microsomes using midazolam as substrate preincubated for 5 mins followed by NADPH addition and measured after 10 mins by LC-MS/MS analysis", "assay_type": "ADME, Microsome"}, "[14]": {"assay": "Drug concentration in plasma of CB17 SCID mouse xenografted with human MCF7 cells harboring wild type ESR1 at 30 mg/kg, po qd for 3 days and measured after 3 hrs last dose by LC-MS/MS analysis", "assay_type": "ADME, organism-based", "conditions": "time 3 day"}, "[15]": {"assay": "Metabolic stability in human liver microsomes assessed as half life at 1 uM and measured upto 60 mins in presence of NADPH by LC-MS/MS analysis", "assay_type": "ADME, Microsome"}, "[16]": {"assay": "Cmax in ICR mouse at 3 mg/kg, po and measured upto 24 hrs by LC-MS/MS analysis", "assay_type": "ADME, organism-based", "parameters": "dose 3 mg/kg, time < 24 hrs, route po", "conditions": "in vivo"}, "[17]": {"assay": "Volume of distribution at steady state in ICR mouse at 1 mg/kg, iv and measured upto 24 hrs by LC-MS/MS analysis", "assay_type": "ADME, organism-based", "conditions": "in vivo, read-out: Vdss"}, "[18]": {"assay": "Oral bioavailability in ICR mouse at 3 mg/kg and measured upto 24 hrs by LC-MS/MS analysis", "assay_type": "ADME, organism-based", "conditions": "in vivo"}, "in vivo [19]": {"assay": "in vivo", "conditions": "Sprague-Dawley, rat, po, 3 mg/kg"}, "[20]": {"assay": "Half life in Sprague-Dawley rat at 3 mg/kg, po and measured upto 24 hrs by LC-MS/MS analysis", "conditions": "in vivo"}, "MCF7 [21]": {"test_system": "MCF7", "assay": "Antitumor activity against human MCF7 cells harboring ESR1 D538G mutant xenografted in CB17 SCID mouse assessed as tumor growth inhibition at 10 mg/kg, po qd for 4 weeks", "assay_type": "functional", "conditions": "MCF7, 672 h, read-out: TGI"}, "MCF7 [22]": {"test_system": "MCF7", "assay": "Antitumor activity against human MCF7 cells harboring wild type ESR1 xenografted in CB17 SCID mouse assessed as tumor growth inhibition at 10 mg/kg, po qd for 5 weeks", "assay_type": "functional", "conditions": "MCF7, 840 h, read-out: TGI"}, "[23]": {"assay": "Drug concentration in tumor of CB17 SCID mouse xenografted with human MCF7 cells harboring ESR1 D538G mutant at 10 mg/kg, po qd for 3 days and measured after 6 hrs last dose by LC-MS/MS analysis", "assay_type": "ADME, organism-based, Neoplasm", "conditions": "time 3 day, read-out: Ct"}, "MCF7 [24]": {"test_system": "MCF7", "assay": "Antitumor activity against human MCF7 cells harboring ESR1 D538G mutant xenografted in CB17 SCID mouse assessed as tumor growth inhibition at 10 mg/kg, po qd for 4 weeks and measured 1 week post last dose", "assay_type": "functional, organism-based"}, "[25]": {"assay": "Drug concentration in plasma of CB17 SCID mouse xenografted with human MCF7 cells harboring wild type ESR1 at 30 mg/kg, po qd for 3 days and measured after 6 hrs last dose by LC-MS/MS analysis", "assay_type": "ADME, organism-based", "conditions": "time 3 day"}, "[26]": {"target": "Protein cereblon/Estrogen receptor (Homo sapiens, UniProt P03372+Q96SW2)", "sequence (P03372 whole entry, looked up)": "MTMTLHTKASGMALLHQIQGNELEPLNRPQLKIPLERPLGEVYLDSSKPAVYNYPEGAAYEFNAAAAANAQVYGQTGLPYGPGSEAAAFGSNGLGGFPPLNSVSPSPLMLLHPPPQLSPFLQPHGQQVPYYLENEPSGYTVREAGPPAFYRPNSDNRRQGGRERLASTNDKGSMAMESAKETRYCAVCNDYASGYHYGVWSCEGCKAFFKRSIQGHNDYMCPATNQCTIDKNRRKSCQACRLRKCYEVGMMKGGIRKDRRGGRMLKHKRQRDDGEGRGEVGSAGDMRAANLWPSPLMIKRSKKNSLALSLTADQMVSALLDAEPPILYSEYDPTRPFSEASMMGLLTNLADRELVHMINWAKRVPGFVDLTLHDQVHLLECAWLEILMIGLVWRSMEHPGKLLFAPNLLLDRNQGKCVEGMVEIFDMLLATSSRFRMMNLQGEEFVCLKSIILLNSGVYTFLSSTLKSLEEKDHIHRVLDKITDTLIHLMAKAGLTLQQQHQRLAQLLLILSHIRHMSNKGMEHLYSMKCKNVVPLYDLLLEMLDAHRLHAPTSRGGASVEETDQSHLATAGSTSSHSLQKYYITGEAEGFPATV", "sequence (Q96SW2 whole entry, looked up)": "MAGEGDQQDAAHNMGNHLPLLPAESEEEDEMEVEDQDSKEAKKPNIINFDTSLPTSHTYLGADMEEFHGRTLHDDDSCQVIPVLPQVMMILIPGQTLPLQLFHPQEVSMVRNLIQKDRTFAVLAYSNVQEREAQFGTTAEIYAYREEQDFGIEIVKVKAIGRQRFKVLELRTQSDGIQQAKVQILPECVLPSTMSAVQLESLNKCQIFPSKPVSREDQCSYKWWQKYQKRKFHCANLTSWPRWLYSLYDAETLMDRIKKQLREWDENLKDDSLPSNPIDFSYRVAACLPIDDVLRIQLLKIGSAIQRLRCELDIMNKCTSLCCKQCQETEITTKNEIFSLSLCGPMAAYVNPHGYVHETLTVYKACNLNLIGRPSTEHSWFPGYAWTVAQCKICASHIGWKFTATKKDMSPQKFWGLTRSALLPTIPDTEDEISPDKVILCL", "assay": "Protac activity at human ERalpha in human T47D cells assessed as reduction in ERalpha protein level at 0.1 to 100 nM by Western blot analysis", "assay_type": "cell-based", "conditions": "dose 0.1-100 nM"}, "[27]": {"assay": "Cmax in Beagle dog at 1 mg/kg, po and measured upto 24 hrs by LC-MS/MS analysis", "assay_type": "ADME, organism-based, Canis lupus familiaris", "parameters": "time < 24 hrs, dose 1 mg/kg, route po", "conditions": "in vivo"}, "[28]": {"assay": "Drug concentration in tumor of CB17 SCID mouse xenografted with human MCF7 cells harboring wild type ESR1 at 10 mg/kg, po qd for 3 days and measured after 6 hrs last dose by LC-MS/MS analysis", "assay_type": "ADME, organism-based, Neoplasm", "conditions": "time 3 day, read-out: Ct"}, "in vivo [29]": {"assay": "in vivo", "conditions": "Sprague-Dawley, rat, po, 3 mg/kg", "remark": "listed apart in the source"}, "[30]": {"assay": "Drug concentration in tumor of CB17 SCID mouse xenografted with human MCF7 cells harboring wild type ESR1 at 30 mg/kg, po qd for 3 days and measured after 6 hrs last dose by LC-MS/MS analysis", "assay_type": "ADME, organism-based, Neoplasm", "conditions": "time 3 day, read-out: Ct"}, "[31]": {"assay": "Toxicity in CB17 SCID mouse xenografted with human MCF7 cells harboring wild type ESR1 assessed as body weight change at 30 mg/kg,po qd for 5 weeks", "assay_type": "organism-based", "conditions": "in vivo, 840 h"}, "[32]": {"assay": "Half life in Beagle dog at 1 mg/kg, po and measured upto 24 hrs by LC-MS/MS analysis", "assay_type": "ADME, organism-based, Canis lupus familiaris", "conditions": "in vivo"}, "MCF7 [33]": {"test_system": "MCF7", "assay": "Antitumor activity against human MCF7 cells harboring ESR1 D538G mutant xenografted in CB17 SCID mouse assessed as tumor growth inhibition at 30 mg/kg, po qd for 4 weeks", "assay_type": "functional", "conditions": "MCF7, 672 h, read-out: TGI"}, "[34]": {"assay": "Volume of distribution at steady state in Beagle dog at 0.5 mg/kg, iv and measured upto 24 hrs by LC-MS/MS analysis", "assay_type": "ADME, organism-based, Canis lupus familiaris", "conditions": "in vivo, read-out: Vdss"}},
  "note": "Activity calls are given as the source filed them. No cut-off for these calls is given here.",
  "data": [
    {"smiles": "C[C@@H]1Cc2c(ccc3[nH]ncc23)[C@@H](c2c(F)cc(N3CCC4(CCN(C(=O)CN5Cc6cc7c(cc6C5)C(=O)N(C5CCC(=O)NC5=O)C7=O)CC4)CC3)cc2F)N1CC(F)F", "note": "(stereo not given in full)", "values": [
      {"measurement": "IC50", "setting": "[1]", "result": "> 30", "unit": "µM"},
      {"measurement": "inhibition in vivo at 10 mg/kg", "setting": "MCF7 [2]", "result": 72, "unit": "%"},
      {"measurement": "concentration at 72 h", "setting": "[3]", "result": 3740, "unit": "ng/mL"},
      {"measurement": "Activity", "setting": "[4]", "result": "Non-Toxic"},
      {"measurement": "AUC at 24 h", "setting": "[5]", "result": 937, "unit": "ng·h/mL"},
      {"measurement": "Activity", "setting": "[6]", "result": 85, "unit": "%"},
      {"measurement": "Activity", "setting": "[7]", "result": "Non-Toxic"},
      {"measurement": "Activity", "setting": "[8]", "result": "Non-Toxic"},
      {"measurement": "Activity", "setting": "[9]", "result": 73, "unit": "%"},
      {"measurement": "half-life at 1 µM", "setting": "[10]", "result": "> 60", "unit": "min"},
      {"measurement": "Activity", "setting": "[11]", "result": 66, "unit": "%"},
      {"measurement": "Vd at 24 h", "setting": "[12]", "result": 1.3, "unit": "L/kg"},
      {"measurement": "clearance", "setting": "[13]", "result": 5.7, "unit": "mL/min/kg"},
      {"measurement": "IC50", "setting": "Cytochrome P450 3A4", "result": "> 10", "unit": "µM"},
      {"measurement": "concentration at 72 h", "setting": "[14]", "result": 1980, "unit": "ng/mL"},
      {"measurement": "half-life at 1 µM", "setting": "[15]", "result": "> 60", "unit": "min"},
      {"measurement": "Cmax", "setting": "[16]", "result": 260, "unit": "ng/mL"},
      {"measurement": "Vd", "setting": "[17]", "result": 3.2, "unit": "L/kg"},
      {"measurement": "bioavailability", "setting": "[18]", "result": 42, "unit": "%"},
      {"measurement": "bioavailability at 24 h", "setting": "in vivo [19]", "result": 20, "unit": "%"},
      {"measurement": "half-life at 24 h", "setting": "[20]", "result": 240, "unit": "min"},
      {"measurement": "inhibition in vivo at 10 mg/kg", "setting": "MCF7 [21]", "result": 38, "unit": "%"},
      {"measurement": "inhibition in vivo at 10 mg/kg", "setting": "MCF7 [22]", "result": 24, "unit": "%"},
      {"measurement": "concentration at 72 h", "setting": "[23]", "result": 1050, "unit": "ng/mL"},
      {"measurement": "Activity", "setting": "MCF7 [24]", "result": "Active"},
      {"measurement": "concentration at 72 h", "setting": "[25]", "result": 1440, "unit": "ng/mL"},
      {"measurement": "Activity", "setting": "[26]", "result": "Dose-Dependent Effect"},
      {"measurement": "Cmax", "setting": "[27]", "result": 87, "unit": "ng/mL"},
      {"measurement": "concentration at 72 h", "setting": "[28]", "result": 385, "unit": "ng/mL"},
      {"measurement": "Cmax at 24 h", "setting": "in vivo [29]", "result": 141, "unit": "ng/mL"},
      {"measurement": "concentration at 72 h", "setting": "[30]", "result": 1470, "unit": "ng/mL"},
      {"measurement": "Activity", "setting": "[31]", "result": "Non-Toxic"},
      {"measurement": "half-life", "setting": "[32]", "result": 474, "unit": "min"},
      {"measurement": "inhibition in vivo at 30 mg/kg", "setting": "MCF7 [33]", "result": 51, "unit": "%"},
      {"measurement": "Vd", "setting": "[34]", "result": 5.2, "unit": "L/kg"}
    ]}
  ]
}
